Patent US9649333B2, “Oxygenation procedures for newborns and devices for use therein” (UTI Limited Partnership, priority 2008, dated 2017)
Where two headings read alike, the source gives them in different places.

Tested on: preterm infants
Settings: for time immediately after birth to reach the target range: FIG. 3
Description: Blinded, randomized control trial of delivery room resuscitation in infants 32 weeks gestation comparing three O2 strategies. The High O2 Burden (HOB) group received a static concentration of 100% O2. In the Moderate O2 Burden (MOB) and Low O2 Burden (LOB) groups, resuscitation started with 100% and 21% O2, respectively. The inspired oxygen concentration was adjusted by 20% every 15 seconds in the MOB and LOB groups until the target SpO2 range of 85% to 92% was reached. SpO2 measurements were recorded every 2 seconds from the right wrist (pre-ductal) and the maximum sensitivity setting of the pulse oximetry was used. An anesthesia monitor continuously measured and recorded respiratory parameters including the peak inspiratory pressure, respiratory rate, end-tidal CO2 and inspired O2 concentration.
There were three sets of preterm infants that were part of this study. The LOB (low oxygen burden group—resuscitation began with room air given followed by a 20% increase every 15 sec as long as the oxygen saturation was less than 85%), MOB ([…] began with 100% oxygen given and decreased 20% every 15 sec as long as the oxygen saturation was greater than 92%) and HOB (high oxygen burden group—100% oxygen given continuously). The inventors enrolled 106 preterm infants (≦32 weeks gestation) (LOB=34, MOB=[…]).

[1] = HOB group: static 100% O2, target SpO2 85-92%
[2] = LOB group: start 21% O2, titrated
[3] = LOB group: start 21% O2, titrated, target SpO2 85-92%
[4] = MOB group: start 100% O2, titrated
[5] = MOB group: start 100% O2, titrated, target SpO2 85-92%

O=O [oxygen]
Mean duration of resuscitation (HOB group: static 100% O2): 590.62 s | mean proportion of resuscitation time spent in the target SpO2 range (85-92%) (HOB group: static 100% O2): 11% | Mean proportion of time above target [1]: 0.49 | Mean proportion of time below target [1]: 0.40 | proportion of time above range [1]: 49% | time immediately after birth to reach the target range (HOB group, target SpO2 85-92%): approximately 5 minutes | Mean proportion of time in target (High O2 Burden (HOB) group: static 100% O2, target SpO2 85-92%): 0.11 | Mean duration of resuscitation [2]: 677.00 s | mean proportion of resuscitation time spent in the target SpO2 range (85-92%) [2]: 16% | Mean proportion of time above target [3]: 0.23 | Mean proportion of time below target [3]: 0.61 | proportion of time below range [3]: 61% | Mean proportion of time in target (Low O2 Burden (LOB) group: start 21% O2, adjusted by 20% every 15 seconds, target SpO2 85-92%): 0.16 | more time in target range than the LOB group (MOB group versus LOB group, target SpO2 85-92%): approximately 25% | Mean duration of resuscitation [4]: 665.00 s | mean proportion of resuscitation time spent in the target SpO2 range (85-92%) [4]: 21% | Mean proportion of time above target [5]: 0.28 | Mean proportion of time below target [5]: 0.51 | time immediately after birth to reach the target range (MOB group, target SpO2 85-92%): approximately 5 minutes | Mean proportion of time in target (Moderate O2 Burden (MOB) group: start 100% O2, adjusted by 20% every 15 seconds, target SpO2 85-92%): 0.21
